Source: patent publication US6258786A, “13-dihydro-3' aziridino anthracyclines” (Pharmacia & Upjohn S.p.A., priority 1998, dated 2001)

Experiments:
Type in all cases: cell-based
L1210 = assay: In vitro cytotoxicity, growth inhibition by counting surviving cells, L1210; conditions: Mus musculus, cells incubated with the compound for 1 h, at least two experiments, read-out: IC50 (50% inhibitory concentration), Mean ± SE
Experimental: (§1) 1. The results of in vivo test of Ia on disseminated P388/DX murine leukemia are shown in Tab.2.
(§2) ^1 Cells incubated with the compound for 1 h.
(§3) ^2 50% inhibitory concentration represents the mean ± SE from
(§4) dose-response curves of at least two experiments
(§5) ^3 Growth inhibition determined by counting surviving cells.

JURKAT = assay: In vitro cytotoxicity, growth inhibition by counting surviving cells, JURKAT; conditions: Homo sapiens, cells incubated with the compound for 1 h, at least two experiments, read-out: IC50 (50% inhibitory concentration), Mean ± SE
Experimental: as §1, §2, §3, §4, §5

CEM = assay: In vitro cytotoxicity, growth inhibition by counting surviving cells, CEM; conditions: Homo sapiens, CCRF-CEM, cells incubated with the compound for 1 h, at least two experiments, read-out: IC50 (50% inhibitory concentration), Mean ± SE
Experimental: as §1, §2, §3, §4, §5

LoVo = assay: In vitro cytotoxicity, growth inhibition by SRB colorimetric assay, LoVo; conditions: Homo sapiens, cells incubated with the compound for 1 h, at least two experiments, read-out: IC50 (50% inhibitory concentration), Mean ± SE
Experimental: as §1, §2, §3, §4
^4 Growth inhibition determined by SRB colorimetric assay.

[1] = system: panel of murine and human tumor cell lines; assay: In vitro cytotoxicity on a panel of murine and human tumor cell lines
Excerpt: The compounds according to the invention are useful in methods of treatment of the human or animal body by therapy. They are useful as anti-tumor agents. They are useful in the treatment of leukemia and solid tumors, such as colon, colon-rectal, ovarian, mammary, prostate, lung, kidney and also melanoma tumors. A human can therefore be treated by a method comprising administering thereto a therapeutically effective amount of a compound of the invention. The condition of the human patient can thus be improved. The dosage to be given can be ascertained using known dosage ranges in the field of anthracyclines, modified by reference to the activity shown by the present compounds in in vitro and in vivo anti-tumor tests. Suitable dosages are generally in the range of 1 to 200 mg/m^2 body surface, preferably from 1 to 100 mg/m^2, depending on the nature and severity of the disease being treated and on the general condition of the patient. The compounds of formula I were tested and found active in vitro against a panel of murine and human tumor cell lines, and in vivo on disseminated P388/DX murine leukemia.
as §1

CC(O)[C@]1(O)Cc2c(O)c3c(c(O)c2[C@@H](O[C@H]2C[C@H](N4CC4)[C@H](OS(C)(=O)=O)[C@H](C)O2)C1)C(=O)c1ccccc1C3=O (mixture of isomers) [Ia, 13(R/S)-Dihydro-4-Demethoxy-3'-Deamino-3'-Aziridinyl-4'-Methansulfonyl Daunorubicin]
IC50 (L1210): 3.76 ± 0.13 ng/mL
IC50 (JURKAT): 4.87 ± 0.7 ng/mL
IC50 (CEM): 5.86 ± 0.4 ng/mL
IC50 (LoVo): 20.3 ± 2 ng/mL
cytotoxicity / in vitro activity in words [1]: high cytotoxicity
